Assay results from PMC7343616 (The FEBS journal, 2020).

How the values were obtained:
wild-type PR = conditions: read-out: Ki for PR, ref Park et al. 2016. Biochemistry [18]; cited from earlier work
PRS5B [1] = target: PRS5B (Human immunodeficiency virus 1, UniProt P03367, A522V/A571V/C567A/C595A/E521D/E535N/G573T/I584V/L510I/L524M/M536I/N583D/Q507K/V511I, form not given); test: FRET-based enzyme kinetic inhibition assay; type: biochemical, HIV-1; conditions: read-out: Ki for PRS5B; FRET substrate, 50 mM MES pH 5.6, 37°C; mean ± SD (n=3–5)
PR^S17 = conditions: Ki for mutant/Ki for wild-type; ref Park et al. 2016. Biochemistry [18]; cited from earlier work
isolate with PRS5B = conditions: ref Stanford HIV database; cited from earlier work
PRS5B [2] = test: FRET-based enzyme kinetic inhibition assay; type: biochemical, HIV-1; conditions: Ki for mutant/Ki for wild-type

SMILES | Ki (wild-type PR) | Ki (PRS5B [1]) | PR^S17 Ki fold change (PR^S17) | resistance in PhenoSense assay (isolate with PRS5B) | PRS5B Ki fold change (PRS5B [2])
CC(C)(C)NC(=O)[C@@H]1C[C@@H]2CCCC[C@@H]2CN1C[C@@H](O)[C@H](Cc1ccccc1)NC(=O)[C@H](CC(N)=O)NC(=O)c1ccc2ccccc2n1 [SQV, saquinavir] | 0.39 nM |  |  |  | 
CCC[C@@]1(CCc2ccccc2)CC(O)=C([C@H](CC)c2cccc(NS(=O)(=O)c3ccc(C(F)(F)F)cn3)c2)C(=O)O1 [TPV, tipranavir] |  | 8.6 ± 1.2 nM |  |  | 
Cc1c(O)cccc1C(=O)N[C@@H](CSc1ccccc1)[C@H](O)CN1C[C@H]2CCCC[C@H]2C[C@H]1C(=O)NC(C)(C)C [NFV, nelfinavir] | 0.36 nM |  |  |  | 
CC(C)CN(C[C@@H](O)[C@H](Cc1ccccc1)NC(=O)O[C@H]1CCOC1)S(=O)(=O)c1ccc(N)cc1 [APV, amprenavir] | 0.2 nM |  |  |  | 
COC(=O)N[C@H](C(=O)N[C@@H](Cc1ccccc1)[C@@H](O)CN(Cc1ccc(-c2ccccn2)cc1)NC(=O)[C@@H](NC(=O)OC)C(C)(C)C)C(C)(C)C [ATV, atazanavir] | 0.035 nM | 8.4 ± 0.9 nM | 2,000 fold |  | 
Cc1cccc(C)c1OCC(=O)N[C@@H](Cc1ccccc1)[C@@H](O)C[C@H](Cc1ccccc1)NC(=O)[C@H](C(C)C)N1CCCNC1=O [LPV, lopinavir] | 0.02 nM | 160 ± 10 nM | 3,650 fold | significant resistance, although not the highest level | 8,000 fold
CC(C)CN(C[C@@H](O)[C@H](Cc1ccccc1)NC(=O)O[C@H]1CO[C@H]2OCC[C@H]21)S(=O)(=O)c1ccc(N)cc1 [DRV, darunavir] | 0.005 nM |  |  |  | 
CC(C)(C)NC(=O)[C@@H]1CN(Cc2cccnc2)CCN1C[C@@H](O)C[C@@H](Cc1ccccc1)C(=O)N[C@H]1c2ccccc2C[C@H]1O [IDV, indinavir] | 0.25 nM |  |  |  | 
